The source of these data is ChEMBL document CHEMBL4266063, “Synthesis of Artemisinin-Estrogen Hybrids Highly Active against HCMV, P. falciparum, and Cervical and Breast Cancer” (ACS Med Chem Lett, 2018).

For data set [1], the system named is Human betaherpesvirus 5. The data set is described as follows: Antiviral activity against GFP-fused Human cytomegalovirus AD169 infected in HFF measured 7 days post infection. Format: functional, organism-based. Conditions: Human betaherpesvirus 5, AD169, HFF, 168 h.
In data set [2] the test system is C-33-A. The data set is described as follows: Antiproliferative activity against human C33A cells after 72 hrs by MTT assay. The format is functional, cell-based. (Tetrazolium dyes change colour on reduction, which living cells bring about.)
The test system of data set [3] is MDA-MB-361. The data set is described as follows: Antiproliferative activity against human MDA-MB-361 cells after 72 hrs by MTT assay. Format: functional, cell-based. Conditions: MDA-MB-361, 72 h.
Data set [4] concerns HFF. The data set is described as follows: Cytotoxicity against HFF measured over 7 days by microscopic analysis. Format: cell-based. The conditions noted are these: human, 168 h.
Data set [5] deals with SiHa. The data set is described as follows: Antiproliferative activity against human SiHa cells after 72 hrs by MTT assay. Format: functional, cell-based.
Data set [6] deals with HeLa. The data set is described as follows: Antiproliferative activity against human HeLa cells after 72 hrs by MTT assay. The format is functional, cell-based.
The subject of data set [7] is MCF7. The data set is described as follows: Antiproliferative activity against human MCF7 cells after 72 hrs by MTT assay. The format is functional, cell-based. Conditions: MCF7, 72 h.
For data set [8], the system named is T47D. The data set is described as follows: Antiproliferative activity against human T47D cells after 72 hrs by MTT assay. The format is functional, cell-based.
The test system of data set [9] is MDA-MB-231. The data set is described as follows: Antiproliferative activity against human MDA-MB-231 cells after 72 hrs by MTT assay. Format: functional, cell-based. Conditions: MDA-MB-231, 72 h.
For data set [10], the system named is Plasmodium falciparum. The data set is described as follows: Antimalarial activity against synchronized ring stage of Plasmodium falciparum 3D7 infected in human erythrocytes after 72 hrs by SYBR Green1 dye based fluorescence assay. The format is functional, organism-based. Conditions: 3D7, 72 h.
The test system of data set [11] is Plasmodium falciparum. The data set is described as follows: Potency index, ratio of chloroquine EC50 to test compound EC50 for synchronized ring stage of Plasmodium falciparum 3D7 infected in human erythrocytes. The format is functional.

Each structure is given as a SMILES string.

In the case of `C[C@@H]1CC[C@H]2[C@@H](C)C(=O)O[C@@H]3O[C@@]4(C)CC[C@@H]1[C@]32OO4` [ARTEMISININ], in data set [1], the EC50 – broadly, the concentration needed to bring the measured effect to its halfway point – is over 10000 nM.
As for `C[C@H]1[C@H](OC(=O)CCC(=O)OC[C@H]2C[C@H]3[C@@H]4CCc5cc(OCc6ccccc6)ccc5[C@H]4CC[C@]3(C)[C@H]2O)O[C@@H]2O[C@@]3(C)CC[C@H]4[C@H](C)CC[C@@H]1[C@@]24OO3`, the EC50 in [2] is 1730 nM; in [3], 200 nM; in data set [1], 380 nM; in data set [5], 28.4 µM; in data set [6] it was over 30 µM; in data set [7], 0.76 µM. The figures for the EC50 in [8], in data set [9] and in data set [10] were 220 nM, 2.3 µM and 34.2 nM, respectively. In addition, in [4], the Activity result is recorded as “Non-Toxic”.
Regarding `C[C@H]1[C@@H](CC(=O)OC[C@H]2C[C@H]3[C@@H]4CCc5cc(OCc6ccccc6)ccc5[C@H]4CC[C@]3(C)[C@H]2O)O[C@@H]2O[C@@]3(C)CC[C@H]4[C@H](C)CC[C@@H]1[C@@]24OO3`, the EC50 in data set [2] came to 150 nM; in [3], 180 nM; in data set [1], 220 nM; in [5], 16.1 µM; in [6], 14.2 µM; in [7], 0.45 µM. In addition, the EC50 in [8] is 930 nM; in data set [9], 0.86 µM; in data set [10], 129 nM. In addition, the Activity result in data set [4] was “Non-Toxic”.
`COc1ccc2c(c1)CC[C@@H]1[C@@H]2CC[C@]2(C)C(=O)[C@H](n3cc(CO[C@H]4O[C@@H]5O[C@@]6(C)CC[C@H]7[C@H](C)CC[C@@H]([C@H]4C)[C@@]57OO6)nn3)C[C@@H]12`: the EC50 in data set [2] was found to be 2050 nM; in data set [3], 170 nM; in [1] it was 240 nM; in data set [5], 28.9 µM; in data set [6], 15.4 µM; in [7] it was 1.77 µM. For the same compound, the EC50 in [8] is 160 nM; in data set [9], 1.78 µM; in data set [10] it was 13.1 nM. Further, the Activity result in [4] is recorded as “Non-Toxic”.
In the case of `COc1ccc2c(c1)CC[C@@H]1[C@@H]2CC[C@]2(C)C(=O)[C@H](N=[N+]=[N-])C[C@@H]12`, the EC50 was over 30000 nM in data set [2]; over 30000 nM in data set [3]; over 30 µM in [5]; over 30 µM in data set [6]; over 30 µM in [7]; over 30000 nM in [8]. Besides, the EC50 was over 30 µM in data set [9] and over 50000 nM in data set [10].
Take `C[C@]12CC[C@@H]3c4ccc(OCc5ccccc5)cc4CC[C@H]3[C@@H]1C[C@H](CO)[C@@H]2O`: the EC50 stood at 12200 nM in [2]; 2770 nM in [3]; 7.75 µM in data set [5]; 12.8 µM in data set [6]; 12.9 µM in data set [7]; 8320 nM in data set [8]. Besides, the results for the EC50 in data set [9] and in data set [10] were 12.8 µM and 17200 nM, respectively.
Regarding `C[C@H]1[C@@H](O)O[C@@H]2O[C@@]3(C)CC[C@H]4[C@H](C)CC[C@@H]1[C@@]24OO3` [ARTENIMOL], the EC50 is 1710 nM in data set [2]; 1710 nM in data set [3]; over 10000 nM in [1]; 29.8 µM in data set [5]; 10.5 µM in data set [6]; 8.24 µM in [7]. Besides, the EC50 in data set [8] came out at 4600 nM; in data set [9], 10.7 µM.
Regarding `COc1ccc2c(c1)CC[C@@H]1[C@@H]2CC[C@]2(C)[C@@H](O)[C@H](N)C[C@@H]12`, the EC50 in [2] was 13200 nM; in data set [3], 4580 nM; in data set [5] it was 17.4 µM; in data set [6], 13.3 µM; in data set [7] it was 11.9 µM; in [8], 5560 nM. In addition, the response in [9] was half-maximal at 16 µM (EC50).
As to `COc1ccc2c(c1)CC[C@@H]1[C@@H]2CC[C@]2(C)[C@@H](O)[C@H](NC(=O)CCC(=O)O[C@@H]3O[C@@H]4O[C@@]5(C)CC[C@H]6[C@H](C)CC[C@@H]([C@H]3C)[C@@]46OO5)C[C@@H]12`, the 50% effective concentration (EC50) in data set [2] is 870 nM; in data set [3] it was 640 nM; in data set [1], 2440 nM; in [5], 26 µM; in [6] it was 11.5 µM; in data set [7], 4.69 µM. The EC50 in data set [8] is 740 nM; in [9] it was 6.89 µM; in data set [10], 3.8 nM. Further, in data set [4], the Activity entry was “Non-Toxic”. Besides, in [11], the “Ratio EC50” value amounted to 2.
For `COc1ccc2c(c1)CC[C@@H]1[C@@H]2CC[C@]2(C)[C@@H](O)[C@H](NC(=O)O[C@H]3O[C@@H]4O[C@@]5(C)CC[C@H]6[C@H](C)CC[C@@H]([C@H]3C)[C@@]46OO5)C[C@@H]12`, the EC50 in data set [2] is 570 nM; in data set [3], 690 nM; in data set [1], 230 nM; in data set [5], 6.21 µM; in data set [6], 1.65 µM; in data set [7], 1.02 µM. Besides, the EC50 in data set [8] was 1170 nM; in data set [9], 1.85 µM; in [10], 7.7 nM. For the same compound, the Activity result in data set [4] is given as “Non-Toxic”.
As to `C[C@H]1[C@H](OC(=O)CCC(=O)O)O[C@@H]2O[C@@]3(C)CC[C@H]4[C@H](C)CC[C@@H]1[C@@]24OO3` [ARTESUNATE], the EC50 in data set [2] is 1830 nM; in data set [3] it was 2270 nM; in [5] it was over 30 µM; in data set [6], 12 µM; in data set [7] it was 4.21 µM; in data set [8], 2220 nM. In addition, the EC50 came out at 10 µM in [9] and 8.9 nM in data set [10].
